The text below walks through data of paper PMC8151276, “An Integrated Approach toward NanoBRET Tracers for Analysis of GPCR Ligand Engagement” (Molecules, 2021).

Common to all, as to format: binding
Test [1] deals with T1, MTNR1B (Homo sapiens, UniProt P49286).
T1 construct: purchased Promega (in-house HiBiT-GPCR construct library, NanoBRET)
T1 sequence (P49286 1-362): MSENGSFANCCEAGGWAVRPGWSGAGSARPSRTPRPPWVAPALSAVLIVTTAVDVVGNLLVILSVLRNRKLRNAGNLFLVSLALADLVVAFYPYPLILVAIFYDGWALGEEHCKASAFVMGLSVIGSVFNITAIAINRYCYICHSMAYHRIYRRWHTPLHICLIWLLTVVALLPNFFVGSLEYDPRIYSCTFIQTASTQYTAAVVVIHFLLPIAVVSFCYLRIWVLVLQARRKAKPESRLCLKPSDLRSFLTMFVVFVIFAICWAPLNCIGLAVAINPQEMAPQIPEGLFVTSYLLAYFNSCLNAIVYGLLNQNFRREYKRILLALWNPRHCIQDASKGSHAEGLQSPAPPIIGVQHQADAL
Kind of test: NanoBRET screen HiBiT-MTNR1B in HEK293. On the procedure:
(§1) Each tracer candidate was screened across the entire library of HiBiT-GPCR constructs using NanoBRET as the detection modality. As depicted in Figure 4A, the specificity of interactions was evaluated through decrease in BRET due to competitive displacement of a bound tracer by excess parental compound. Each tracer was analyzed for binding to each HiBiT-GPCR fusion in the absence and in the presence of competing parental compound. Briefly, HEK293 cells were transfected with HiBiT-GPCR constructs diluted into promoterless DNA to reduce expression and maximize translocation to the cell surface. Each tracer candidate was then screened at concentrations of 1 μM and 0.1 μM across cells expressing these fusions. Cells were treated for 1.5 h with tracer either alone or in the presence of 20 μM competing parental compound (i.e., control). BRET was measured upon addition of purified LgBiT and subsequent complementation with HiBiT genetically fused to a GPCR. The specificity of interactions was assessed through a decrease in BRET signal due to competitive displacement of the bound tracer. To further gauge the robustness of these interactions, the fold response over the control (i.e., BRETtracer/BRETcontrol) was calculated. We chose a 1.5-fold response, which translates to ≥7-fold signal over noise as the minimal threshold required to score an interaction as positive. […]. Below we highlight the screening results obtained for our exemplary fluorescent tracers based on Clozapine, Amitriptyline and AZD1283.
(§2) HiBiT-GPCR DNA constructs were diluted in 10 mM Tris pH 8 to a final concentration of 0.01 μg/μL, arrayed in 96-well plates and stored at −20 °C. For transfection, HEK293 cells were suspended in Opti-MEM (without phenol red) supplemented with 2% fetal bovine serum (Seradigm) and 100 units/mL penicillin–streptomycin (Gibco) at a final concentration of 220,000 cells/mL and dispensed into white 96-well plates at 90 μL/well. Subsequent transfections and screens were carried using an Agilent Bravo Automated Liquid Handling Platform. First, the 96-well HiBiT DNA arrays were diluted 25-fold in Opti-MEM (without serum or phenol red) to a final concentration of 0.0004 μg/μL and 20 μL of the diluted DNAs were transferred into new 96-well plates. Next, promoterless carrier DNA (1 μg/μL) was diluted 25-fold (0.04 μg/μL) and then dispensed into the diluted arrays at 20 μL/well. Following brief mixing, Viafect transfection reagent (Promega) diluted 16-fold into Opti-MEM was dispensed into the plates at 40 μL/well. After mixing by pipetting, plates were incubated for 10 min on the pipetting station deck. The DNA-transfection reagent complexes were then added to plates containing cells. To facilitate the screen, 10 μL of DNA-transfection reagent complexes were added in duplicates to the top 4 and bottom 4 rows, resulting in two identical 48-well arrays per plate. Plates with transfected cells were incubated for 18–20 h at 37 °C/5% CO2. A screen of each tracer across the entire library using two different concentrations requires duplicate plates of transfected cells. Depending on the number of tracers being screened, transfections can be scaled up using the same ratios. The next day, for each tracer, four 20× screening solutions in tracer dilution buffer (Promega) were prepared: two duplicates at final concentration of 20 μM and two duplicates at a final concentration of 2 μM. A competing unmodified compound was added to one of each duplicate at a final concentration of 400 μM. The four resulting solutions were diluted 4-fold in Opti-MEM without serum or phenol red to generate 5× solutions (5 µM and 0.5 µM tracer +/− 100 μM competing compound). To screen the library, a BioTek MultiFlo FX liquid dispenser was used to dispense 22.5 µL of tracer solution to the top 4 rows and 22.5 µL tracer + competing compound solution to the 4 bottom rows. Plates were briefly mixed on an orbital shaker and incubated for 1.5 h at room temperature. […]
Background: BRET reads energy transfer from a luciferase to a nearby fluorophore.

For test [2], the target named is T2, HTR1E (Homo sapiens, UniProt P28566).
T2 construct: purchased Promega (in-house HiBiT-GPCR construct library, NanoBRET)
T2 sequence (P28566 whole entry): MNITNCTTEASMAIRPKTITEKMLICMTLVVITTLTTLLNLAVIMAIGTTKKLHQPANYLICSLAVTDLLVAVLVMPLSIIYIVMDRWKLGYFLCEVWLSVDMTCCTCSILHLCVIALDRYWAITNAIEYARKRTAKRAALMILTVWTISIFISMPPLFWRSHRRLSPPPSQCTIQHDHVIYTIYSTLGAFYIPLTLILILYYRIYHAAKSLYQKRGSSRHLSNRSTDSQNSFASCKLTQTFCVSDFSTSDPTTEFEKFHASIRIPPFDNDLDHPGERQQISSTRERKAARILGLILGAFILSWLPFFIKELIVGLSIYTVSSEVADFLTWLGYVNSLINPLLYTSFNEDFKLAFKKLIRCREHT
Kind of test: NanoBRET screen HiBiT-HTR1E in HEK293. The procedure:
as §1, §2

In test [3] the target is T3, CXCR5 (Homo sapiens, UniProt P32302).
T3 construct: purchased Promega (in-house HiBiT-GPCR construct library, NanoBRET)
T3 sequence (P32302 1-372): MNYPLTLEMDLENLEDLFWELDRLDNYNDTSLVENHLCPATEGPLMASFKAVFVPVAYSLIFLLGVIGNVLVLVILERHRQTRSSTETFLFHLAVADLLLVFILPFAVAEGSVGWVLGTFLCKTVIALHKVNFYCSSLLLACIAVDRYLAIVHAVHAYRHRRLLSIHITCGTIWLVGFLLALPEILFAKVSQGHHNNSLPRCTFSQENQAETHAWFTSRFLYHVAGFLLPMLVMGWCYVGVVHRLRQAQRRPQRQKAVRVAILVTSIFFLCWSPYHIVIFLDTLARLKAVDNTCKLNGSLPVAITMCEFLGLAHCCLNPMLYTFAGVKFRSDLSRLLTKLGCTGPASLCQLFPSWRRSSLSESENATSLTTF
Kind of test: NanoBRET screen HiBiT-CXCR5 in HEK293. The procedure:
as §1, §2

The target of test [4] is T4, FPR1 (Homo sapiens, UniProt P21462).
T4 construct: purchased Promega (in-house HiBiT-GPCR construct library, NanoBRET)
T4 sequence (P21462 1-350): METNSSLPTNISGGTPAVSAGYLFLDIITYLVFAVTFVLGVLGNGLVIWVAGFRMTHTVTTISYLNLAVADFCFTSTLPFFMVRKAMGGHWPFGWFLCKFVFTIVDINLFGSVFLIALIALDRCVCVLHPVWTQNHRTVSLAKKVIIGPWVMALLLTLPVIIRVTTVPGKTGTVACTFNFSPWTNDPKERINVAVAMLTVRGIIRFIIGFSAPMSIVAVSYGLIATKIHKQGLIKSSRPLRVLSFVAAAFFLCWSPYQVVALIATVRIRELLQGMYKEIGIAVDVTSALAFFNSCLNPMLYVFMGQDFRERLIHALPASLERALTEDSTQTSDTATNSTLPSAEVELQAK
Kind of test: NanoBRET screen HiBiT-FPR1 in HEK293. On the procedure: as §1, §2

Where [5] appears, read: tracer at 0.1μM, listed as amitriptyline-b-2-NB590.
The mark [6] stands for this setting: tracer at 1μM, listed as amitriptyline-b-2-NB590.

`CC(C)N(CC[C@H](c1ccccc1)c1cc(CCNC(=O)CCOCCOCCOCCOCCNC(=O)CCc2ccc3n2[B-](F)(F)[N+]2=C(c4ccc[nH]4)C=CC2=C3)ccc1O)C(C)C` [Tolterodine-2-NB590]: the “NanoBRET Fold Response” value is on record as 0.95 in test [1] (MTNR1B, tracer 0.1μM); 0.79 in test [1] (MTNR1B, tracer 1μM); 1.27 in test [2] (HTR1E, tracer 0.1μM); 1.10 in test [2] (HTR1E, tracer 1μM); 1.31 in test [3] (CXCR5, tracer 0.1μM); 1.00 in test [3] (CXCR5, tracer 1μM). Moreover, the “NanoBRET Fold Response” value in test [4] (FPR1, tracer 0.1μM) stood at 1.07; in test [4] (FPR1, tracer 1μM), 0.85.

As to `Cc1nc2n(c(=O)c1CCN1CCC(c3noc4cc(F)ccc34)CC1)CCCC2OC(=O)NCCOCCOCCOCCOCCNC(=O)CCc1ccc2n1[B-](F)(F)[N+]1=C(c3ccc[nH]3)C=CC1=C2` (stereo not shown) [Risperidone-2-NB590], the “NanoBRET Fold Response” value in test [1] (MTNR1B, tracer 0.1μM) amounted to 0.99; in test [1] (MTNR1B, tracer 1μM), 0.92; in test [2] (HTR1E, tracer 0.1μM) it was 0.96; in test [2] (HTR1E, tracer 1μM), 1.07; in test [3] (CXCR5, tracer 0.1μM), 1.10; in test [3] (CXCR5, tracer 1μM), 0.93. For the same compound, the “NanoBRET Fold Response” value in test [4] (FPR1, tracer 0.1μM) is listed as 0.97; in test [4] (FPR1, tracer 1μM) it was 0.91.

For the compound `O=C(CCOCCOCCOCCOCCNC(=O)CCc1ccc2n1[B-](F)(F)[N+]1=C(c3ccc[nH]3)C=CC1=C2)NCCCN1CCN(C2=Nc3cc(Cl)ccc3Nc3ccccc32)CC1` [Clozapine-a-2-NB590], the “NanoBRET Fold Response” value in test [1] (MTNR1B, 0.1μM tracer) is reported as 1.06; in test [1] (MTNR1B, 1μM tracer) it was 0.97; in test [2] (HTR1E, 0.1μM tracer) it was 1.01; in test [2] (HTR1E, 1μM tracer) it was 0.96; in test [3] (CXCR5, 0.1μM tracer) it was 1.06; in test [3] (CXCR5, 1μM tracer), 1.01. Also, the “NanoBRET Fold Response” value is 1.01 in test [4] (FPR1, 0.1μM tracer) and 1.22 in test [4] (FPR1, 1μM tracer).

Take `COc1ccc2[nH]c(-c3ccc(CNC(=O)CCOCCOCCOCCOCCNC(=O)CCc4ccc5n4[B-](F)(F)[N+]4=C(c6ccc[nH]6)C=CC4=C5)cc3)c(CCNC(C)=O)c2n1` [AzomelatoninICO9-2-NB590]: the “NanoBRET Fold Response” value is given as 2.05 in test [1] (0.1μM tracer); 2.32 in test [1] (1μM tracer); 0.97 in test [2] (0.1μM tracer); 1.18 in test [2] (1μM tracer); 1.36 in test [3] (0.1μM tracer); 0.90 in test [3] (1μM tracer). Further, the “NanoBRET Fold Response” value amounted to 1.02 in test [4] (0.1μM tracer) and 0.90 in test [4] (1μM tracer).

On to `CN1CCN(C2=Nc3cc(Cl)ccc3Nc3ccc(CNC(=O)CCOCCOCCOCCOCCNC(=O)CCc4ccc5n4[B-](F)(F)[N+]4=C(c6ccc[nH]6)C=CC4=C5)cc32)CC1` [Clozapine-b-2-NB590], for which the “NanoBRET Fold Response” value in test [1] (MTNR1B, 0.1μM tracer) is reported as 0.95; in test [1] (MTNR1B, 1μM tracer), 1.05; in test [2] (HTR1E, 0.1μM tracer), 0.99; in test [2] (HTR1E, 1μM tracer) it was 0.97; in test [3] (CXCR5, 0.1μM tracer), 0.95; in test [3] (CXCR5, 1μM tracer), 1.02. In addition, the “NanoBRET Fold Response” value in test [4] (FPR1, 0.1μM tracer) was 0.98; in test [4] (FPR1, 1μM tracer), 1.00.

Consider `COc1ccccc1N1CCN(CCCCN2C(=O)c3ccc(CNC(=O)CCOCCNC(=O)c4ccc(CNC(=O)CCc5ccc6n5[B-](F)(F)[N+]5=C(c7ccc[nH]7)C=CC5=C6)cc4)cc3C2=O)CC1` [NAN-190-3-NB590], for which the “NanoBRET Fold Response” value turned out to be 1.20 in test [1] (MTNR1B, tracer 0.1μM); 1.15 in test [1] (MTNR1B, tracer 1μM); 0.84 in test [2] (HTR1E, tracer 0.1μM); 0.91 in test [2] (HTR1E, tracer 1μM); 1.37 in test [3] (CXCR5, tracer 0.1μM); 0.68 in test [3] (CXCR5, tracer 1μM). Besides, the “NanoBRET Fold Response” value in test [4] (FPR1, tracer 0.1μM) was 0.95; in test [4] (FPR1, tracer 1μM) it was 1.09.

Consider `N#CN=C(NCCCOc1cccc(CN2CCCCC2)c1)NCCNC(=O)CCOCCOCCOCCOCCNC(=O)CCc1ccc2n1[B-](F)(F)[N+]1=C(c3ccc[nH]3)C=CC1=C2` [Aminopotentidine-2-NB590], for which the “NanoBRET Fold Response” value stood at 0.99 in test [1] (MTNR1B, tracer 0.1μM); 0.99 in test [1] (MTNR1B, tracer 1μM); 0.93 in test [2] (HTR1E, tracer 0.1μM); 1.06 in test [2] (HTR1E, tracer 1μM); 1.04 in test [3] (CXCR5, tracer 0.1μM); 0.99 in test [3] (CXCR5, tracer 1μM). Also, the “NanoBRET Fold Response” value came to 0.99 in test [4] (FPR1, tracer 0.1μM) and 0.97 in test [4] (FPR1, tracer 1μM).

For `CN(C)CCC=C1c2ccccc2CCc2ccc(C(=O)NCCNC(=O)CCOCCOCCOCCOCCNC(=O)CCc3ccc4n3[B-](F)(F)[N+]3=C(c5ccc[nH]5)C=CC3=C4)cc21` [Amitriptyline-b-2-NB590], the “NanoBRET Fold Response” value came out at 1.02 in test [1] (MTNR1B, tracer 0.1μM); 1.04 in test [1] (MTNR1B, tracer 1μM); 1.01 in test [2] (setting [5]); 0.95 in test [2] (setting [6]); 1.39 in test [3] (setting [5]); 1.19 in test [3] (setting [6]). For the same compound, the figures for the “NanoBRET Fold Response” value in test [4] (tracer at 0.1μM) and in test [4] (setting [6]) were 0.96 and 1.02, respectively.

As to `COc1ccccc1N1CCN(CCCCN2C(=O)c3ccc(CNC(=O)CCOCCOCCOCCOCCNC(=O)CCc4ccc5n4[B-](F)(F)[N+]4=C(c6ccc[nH]6)C=CC4=C5)cc3C2=O)CC1` [NAN-190-2-NB590], the “NanoBRET Fold Response” value in test [1] (MTNR1B, tracer 1μM) turned out to be 1.00; in test [2] (HTR1E, tracer 0.1μM), 0.97; in test [3] (CXCR5, tracer 0.1μM), 1.01; in test [3] (CXCR5, tracer 1μM) it was 1.00; in test [4] (FPR1, tracer 0.1μM) it was 1.09; in test [4] (FPR1, tracer 1μM), 1.04.
